Results taken from patent US20250197420A1, “MACROCYCLIC COMPOUNDS, COMPOSITIONS, AND METHODS OF USING THEREOF” (Sionna Therapeutics Inc., priority 2022, published 2025).

How the values were obtained:
[1] = molecular target: T1, Purified recombinant NBD1 (Homo sapiens, UniProt P13569); test: Aggregation analysis using differential static light scattering (DSLS): thermal stability of NBD1; type: binding; details: NBD1 0.2 mg/ml; Tagg of compound well minus average Tagg of DMSO control wells
T1 construct: Purified recombinant NBD1 was produced using previously described methods; made in house
T1 sequence (P13569 423-646 limits assumed): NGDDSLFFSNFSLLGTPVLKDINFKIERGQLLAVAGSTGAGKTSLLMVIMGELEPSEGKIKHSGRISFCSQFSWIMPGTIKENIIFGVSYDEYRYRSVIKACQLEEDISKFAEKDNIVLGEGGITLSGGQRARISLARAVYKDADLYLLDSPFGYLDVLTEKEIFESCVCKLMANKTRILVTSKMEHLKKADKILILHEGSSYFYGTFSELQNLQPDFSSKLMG
Method in brief: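 Recombinant NBD1 at 0.2 mg/ml in Tris/NaCl/MgCl2 buffer with 2 mM ATP, 2 mM DTT, 1% glycerol, pH 7.6, was incubated with compound and heated at 1 °C/min to 70 °C while static light scattering was monitored. Tagg was taken from the curve inflection point and reported as ΔTagg relative to DMSO controls.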

[2] = test system: Primary human bronchial epithelial cells from a ΔF508 homozygous CF donor (CF-HBE cells); test: TECC24 recording of CFTR-mediated transepithelial chloride transport, AUC fold over benchmark VX-809 @10 μM; type: cell-based; details: 48 hours incubation, AUC of forskolin-stimulated IEQ
Method: The effects of a test agent on CFTR-mediated transepithelial chloride transport is measured using TECC24 recording analysis. Test agents are solubilized in DMSO. Solubilized test agents are mixed with incubation medium containing DMEM/F12, Ultroser G (0.5%; Crescent Chemical, catalog #67042), Hyclone Fetal Clone II (2%; GE Healthcare, catalog #SH30066.02), bovine brain extract (0.25%; Lonza, catalog #CC-4098), insulin ([…]), IL-13 (10 ng/mL), hydrocortisone (20 nM), transferrin ([…]), triiodothyronine (500 nM), ethanolamine (250 nM), epinephrine (1.5 μM), phosphoethanolamine (250 nM), and retinoic acid (10 nM). Primary human bronchial epithelial cells from a ΔF508 homozygous CF donor (CF-HBE cells; from University of North Carolina Cystic Fibrosis Tissue Procurement Center), grown on Transwell HTS 24-well cell culture inserts (Costar, catalog #3378), are exposed to test agents or controls dissolved in incubation medium. The CF-HBE cells are cultured at 36.5° C. for 48 hours before TECC24 recordings are performed in the presence or absence of test agent, a positive control or vehicle (DMSO).
Following incubation, the transwell cell culture inserts containing the test agent or control-treated CF-HBE cells are loaded onto a TECC24 apparatus (TECC v7 or MTECC v2; EP Design) to record the transepithelial voltage (VT) and resistance (TEER) using 4 AgCl electrodes per well configured in current-clamp mode. The apical and basolateral bath solutions both contain (in mM) 140 NaCl, 5 KCl, 2 CaCl2), 1 MgCl2, 10 Hepes, and 10 glucose (adjusted to pH 7.4 with NaOH). To inhibit basal Na+ absorption, the ENaC inhibitor benzamil (10 μM) is added to the bath. Then, the adenylate cyclase activator, forskolin (10 μM), is added to the bath to activate CFTR. The forskolin-stimulated Cl− transport is halted by addition of CFTR inhibitor-172 (20 μM) to the bath at the end of the experiment to confirm specificity. VT and TEER recordings are digitally acquired at routine intervals using TECC or MTECC software (EP Design). VT and TEER are transformed into equivalent transepithelial Cl− current (IEQ), and the Area Under the Curve (AUC) of the IEQ time course between forskolin and CFTR inhibitor-172 addition is generated using Excel (Microsoft). Efficacy is expressed as the ratio of the test agent AUC divided by vehicle AUC. EC50s based on AUC are generated using the non-linear regression log(agonist) vs. response function in Prism software (Graphpad) with HillSlope fixed=1.
If a test agent increases the AUC of the forskolin-stimulated IEQ relative to VX-809 in CF-HBE cells, and this increase is inhibited by CFTR inhibitor-172, then the test agent is considered a CFTR corrector. TECC assay efficacy is expressed as the ratio of the test agent AUC divided by VX-809 AUC. As set forth in Table 2 below, a TECC value less than 3 is marked “A”; a value between 3 and 6 is marked “B”; a value between 6 and 20 is marked “C”.

Row | Compound | DSLS (ΔTagg) [1] | TECC (test agent AUC divided by VX-809 AUC) [2]
1 | CN1CC(C)(C)CCCC(C)(c2cccc(CCC(=O)NOCCO)c2)c2cnc([nH]2)-c2cc(ccc2F)Oc2c(F)cc3[nH]ccc3c2CCC1=O (single isomer, unassigned) [Compound 59, 3-[3-(23,29-difluoro-6,10,10,12-tetramethyl-13-oxo-25-oxa-3,12,20,31-tetrazapentacyclo[24.3.1.12,5.016,24.017,21]hentriaconta-1(30),2,4,16,18,21,23,26,28-nonaen-6-yl)phenyl]-N-(2-hydroxyethoxy)propanamide] | B (a value above 5 °C and less than or equal to 10 °C is marked “B”) | A (a TECC value less than 3 is marked “A”)
2 | CON(C)C(=O)CCc1cccc(C2(C)CCCC(C)(C)CN(C)C(=O)CCc3c(c(F)cc4[nH]ccc34)Oc3ccc(F)c(c3)-c3ncc2[nH]3)c1 (single isomer, unassigned) [Compound 60A, 3-[3-(23,29-difluoro-6,10,10,12-tetramethyl-13-oxo-25-oxa-3,12,20,31-tetrazapentacyclo-[24.3.1.12,5.016,24.017,21]hentriaconta-1(30),2,4,16,18,21,23,26,28-nonaen-6-yl)phenyl]-N-methoxy-N-methyl-propanamide] | A (an ΔTagg value less than or equal to 5 °C is marked “A”) | A (a TECC value less than 3 is marked “A”)
3 | CON(C)C(=O)CCc1cccc(C2(C)CCCC(C)(C)CN(C)C(=O)CCc3c(c(F)cc4[nH]ccc34)Oc3ccc(F)c(c3)-c3ncc2[nH]3)c1 (single isomer, unassigned) [Compound 60B, 3-[3-(23,29-difluoro-6,10,10,12-tetramethyl-13-oxo-25-oxa-3,12,20,31-tetrazapentacyclo-[24.3.1.12,5.016,24.017,21]hentriaconta-1(30),2,4,16,18,21,23,26,28-nonaen-6-yl)phenyl]-N-methoxy-N-methyl-propanamide] | B (a value above 5 °C and less than or equal to 10 °C is marked “B”) | B (a value between 3 and 6 is marked “B”)
4 | CCOC(=O)Cc1cccc(C2(C)CCCC(C)(C)CN(C)C(=O)CCc3c(c(F)cc4[nH]ccc34)Oc3ccc(F)c(c3)-c3ncc2[nH]3)c1 (single isomer, unassigned) [Compound 64A, ethyl 2-[3-(23,29-difluoro-6,10,10,12-tetramethyl-13-oxo-25-oxa-3,12,20,31-tetrazapentacyclo-[24.3.1.12,5.016,24.017,21]hentriaconta-1(30),2,4,16,18,21,23,26,28-nonaen-6-yl)phenyl]acetate] | A (an ΔTagg value less than or equal to 5 °C is marked “A”) | A (a TECC value less than 3 is marked “A”)
5 | CCOC(=O)Cc1cccc(C2(C)CCCC(C)(C)CN(C)C(=O)CCc3c(c(F)cc4[nH]ccc34)Oc3ccc(F)c(c3)-c3ncc2[nH]3)c1 (single isomer, unassigned) [Compound 64B, ethyl 2-[3-(23,29-difluoro-6,10,10,12-tetramethyl-13-oxo-25-oxa-3,12,20,31-tetrazapentacyclo-[24.3.1.12,5.016,24.017,21]hentriaconta-1(30),2,4,16,18,21,23,26,28-nonaen-6-yl)phenyl]acetate] | A (an ΔTagg value less than or equal to 5 °C is marked “A”) | B (a value between 3 and 6 is marked “B”)
6 | CN1CC(C)(C)CCCC(C)(c2cccc(CC(=O)O)c2)c2cnc([nH]2)-c2cc(ccc2F)Oc2c(F)cc3[nH]ccc3c2CCC1=O (single isomer, unassigned) [Compound 65A, 2-[3-(23,29-difluoro-6,10,10,12-tetramethyl-13-oxo-25-oxa-3,12,20,31-tetrazapentacyclo-[24.3.1.12,5.016,24.017,21]hentriaconta-1(30),2,4,16,18,21,23,26,28-nonaen-6-yl)phenyl]acetic acid] | A (an ΔTagg value less than or equal to 5 °C is marked “A”) | A (a TECC value less than 3 is marked “A”)
7 | CN1CC(C)(C)CCCC(C)(c2cccc(CC(=O)O)c2)c2cnc([nH]2)-c2cc(ccc2F)Oc2c(F)cc3[nH]ccc3c2CCC1=O (single isomer, unassigned) [Compound 65B, 2-[3-(23,29-difluoro-6,10,10,12-tetramethyl-13-oxo-25-oxa-3,12,20,31-tetrazapentacyclo-[24.3.1.12,5.016,24.017,21]hentriaconta-1(30),2,4,16,18,21,23,26,28-nonaen-6-yl)phenyl]acetic acid] | C (a value greater than 10 °C and less than or equal to 25 °C is marked “C”) | A (a TECC value less than 3 is marked “A”)
8 | [2H]C([2H])([2H])C1(c2cccc(CCC(=O)O)c2)CCCC(C)(C)CN(C)C(=O)CCc2c(c(F)cc3[nH]ccc23)Oc2ccc(F)c(c2)-c2ncc1[nH]2 (single isomer, unassigned) [Compound 66A] | A (an ΔTagg value less than or equal to 5 °C is marked “A”) | A (a TECC value less than 3 is marked “A”)
9 | [2H]C([2H])([2H])C1(c2cccc(CCC(=O)O)c2)CCCC(C)(C)CN(C)C(=O)CCc2c(c(F)cc3[nH]ccc23)Oc2ccc(F)c(c2)-c2ncc1[nH]2 (single isomer, unassigned) [Compound 66B] | C (a value greater than 10 °C and less than or equal to 25 °C is marked “C”) | A (a TECC value less than 3 is marked “A”)
10 | CC1(C)CNC(=O)CCc2c(c(F)cc3[nH]ccc23)Oc2ccc(F)c(c2)-c2ncc([nH]2)C(C)(c2cccc(CCC(=O)O)c2)CCOC1 (single isomer, unassigned) [Compound 67A, 3-[3-(24,30-difluoro-6,11,11-trimethyl-14-oxo-9,26-dioxa-3,13,21,32-tetrazapentacyclo[25.3.1.12,5.017,25.018,22]dotriaconta-1(31),2,4,17,19,22,24,27,29-nonaen-6-yl)phenyl]propanoic acid] | C (a value greater than 10 °C and less than or equal to 25 °C is marked “C”) | C (a value between 6 and 20 is marked “C”)
11 | CC1(C)CNC(=O)CCc2c(c(F)cc3[nH]ccc23)Oc2ccc(F)c(c2)-c2ncc([nH]2)C(C)(c2cccc(CCC(=O)O)c2)CCOC1 (single isomer, unassigned) [Compound 67B, 3-[3-(24,30-difluoro-6,11,11-trimethyl-14-oxo-9,26-dioxa-3,13,21,32-tetrazapentacyclo[25.3.1.12,5.017,25.018,22]dotriaconta-1(31),2,4,17,19,22,24,27,29-nonaen-6-yl)phenyl]propanoic acid] | B (a value above 5 °C and less than or equal to 10 °C is marked “B”) | A (a TECC value less than 3 is marked “A”)
12 | CC1(c2cccc(CCC(=O)O)c2)CCCC2(CC2)CNC(=O)CCc2c(c(F)c(F)c3[nH]ccc23)Oc2ccc(F)c(c2)-c2ncc1[nH]2 (single isomer, unassigned) [Compound 69A, 3-[3-(22,23,29-trifluoro-6-methyl-13-oxo-spiro[25-oxa-3,12,20,31-tetrazapentacyclo-[24.3.1.12,5.016,24.017,21]hentriaconta-1(30),2,4,16,18,21,23,26,28-nonaene-10,1′-cyclopropane]-6-yl)phenyl]propanoic acid] | A (an ΔTagg value less than or equal to 5 °C is marked “A”) | B (a value between 3 and 6 is marked “B”)
